Reference: PubChem BioAssay (NCI)
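Test compounds were applied to cells in 96-well plates for 48 hours at 5 doses. The concentration for 50% growth inhibition is given as GI50. TGI marks complete inhibition of growth.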

Assays:
Assay in all cases: NCI-60 cell line screen, 48 h
T-47D breast = tested on: T-47D breast
SNB-75 CNS = tested on: SNB-75 CNS
HCT-15 colon = tested on: HCT-15 colon
SF-268 CNS = tested on: SF-268 CNS
MOLT-4 leukemia = tested on: MOLT-4 leukemia
OVCAR-3 ovarian = tested on: OVCAR-3 ovarian
UO-31 renal = tested on: UO-31 renal
K-562 leukemia = tested on: K-562 leukemia
NCI-H460 lung = tested on: NCI-H460 lung
EKVX NSCLC = tested on: EKVX NSCLC

SMILES	GI50 (T-47D breast) [µM]	TGI (T-47D breast) [µM]	GI50 (SNB-75 CNS) [µM]	TGI (SNB-75 CNS) [µM]	GI50 (HCT-15 colon) [µM]	TGI (HCT-15 colon) [µM]	GI50 (SF-268 CNS) [µM]	TGI (SF-268 CNS) [µM]	GI50 (MOLT-4 leukemia) [µM]	TGI (MOLT-4 leukemia) [µM]	GI50 (OVCAR-3 ovarian) [µM]	TGI (OVCAR-3 ovarian) [µM]	GI50 (UO-31 renal) [µM]	TGI (UO-31 renal) [µM]	GI50 (K-562 leukemia) [µM]	TGI (K-562 leukemia) [µM]	GI50 (NCI-H460 lung) [µM]	TGI (NCI-H460 lung) [µM]	TGI (EKVX NSCLC) [µM]	GI50 (EKVX NSCLC) [µM]
CCN(Cc1c(F)cccc1C(F)(F)F)c1ccc(CO)c(Cl)c1	< 0.0249	0.285	12.5	26.4	12.8	27.1	16.6	31.5	16.5	37.1	0.261	4.9	14.6	28.3	0.692	13	0.0894	17.2	–	–
O=S(=O)(O)c1ccc([Se][Se]c2ccc(S(=O)(=O)O)cc2)cc1	–	–	–	> 100	–	> 100	–	> 100	–	> 100	–	> 100	–	> 100	–	> 100	–	> 100	> 100	–
Cc1cc(C2CC(O)C(CO)O2)c(Br)cc1Br (stereo unspecified)	> 100	> 100	–	–	> 100	> 100	> 100	> 100	–	–	> 100	> 100	> 100	> 100	> 100	> 100	> 100	> 100	> 100	84.5
COc1ccc(N2CCN(c3nc(-c4ccccn4)nc4sc5c(c34)CCCCCC5)CC2)cc1	6.31	> 100	26.1	> 100	4.26	> 100	> 100	> 100	3.26	> 100	8.61	> 100	3.28	> 100	4.15	> 100	4.67	> 100	–	–
c1ccc2cc(Cn3c(-c4cccc5ccccc45)[n+](Cc4ccc5ccccc5c4)c4c5ccccc5c5ccccc5c43)ccc2c1	0.269	1.7	0.261	1.19	0.398	1.88	–	–	0.385	2.09	–	–	–	–	0.224	> 100	0.254	1.41	1.66	0.268
Cc1cc(NCCCCCCCCNc2cc(C)nc3cc(N(C)C)ccc23)c2ccc(N(C)C)cc2n1	–	–	–	–	–	> 100	–	26.9	–	> 100	–	18.4	–	> 100	–	28.5	–	19.5	28.5	–
COc1ccc(NC(=O)CC2SC(=Nc3ccc(Cl)cc3C)NC2=O)c([N+](=O)[O-])c1 (stereo unspecified)	–	–	–	> 100	–	> 100	–	> 100	–	> 100	–	> 100	–	> 100	–	> 100	–	> 100	> 100	–
Oc1ccccc1-c1cnnc(-c2ccccc2O)c1	–	–	–	51.6	–	–	–	> 100	–	66.5	–	44.6	–	44.3	–	> 100	–	–	92.9	–
O=C(NNC(=O)/C(=C/c1cccc([N+](=O)[O-])c1)NC(=O)c1ccccc1)Nc1ccc(Cl)cc1	–	–	–	36	–	24.7	–	29.6	–	25.2	–	25.4	–	27.3	–	36.1	–	29.9	44	–
[N-]=[N+]=NCCCn1c2c(c3ccccc3c1=O)C(=O)c1cc3c(cc1-2)OCO3	–	–	–	–	> 100	> 100	81.7	> 100	19.6	> 100	> 100	> 100	> 100	> 100	25.9	> 100	8.25	> 100	> 100	> 100
CCCCCCCC(=O)[O-].N.N.N.N.N.[Co+3].[O-][Cl+3]([O-])([O-])[O-]	–	–	> 100	> 100	> 100	> 100	> 100	> 100	53.5	> 100	> 100	> 100	90.6	> 100	> 100	> 100	> 100	> 100	> 100	> 100
Cc1cc(S(=O)(=O)Nc2nc3ccccc3s2)c(SCc2ccccc2)cc1Cl	–	–	–	–	15.2	30.8	27.1	73.9	–	–	8	23.3	19.4	45.9	15.6	> 100	21.4	> 100	49.2	13.2
C/C(COc1ccccc1)=N\NC(N)=S	–	–	–	> 100	–	> 100	–	> 100	–	> 100	–	> 100	–	> 100	–	> 100	–	–	> 100	–
O=C1/C(=C/c2ccc(C(=O)O)cc2)CNC/C1=C\c1ccc(C(=O)O)cc1	–	–	–	> 100	–	> 100	–	> 100	–	> 100	–	> 100	–	> 100	–	> 100	–	> 100	–	–
COc1ccc(/C=C2\CCC(C)(CN(C)C)C2=O)cc1Br (stereo unspecified)	–	–	–	76.3	–	32.2	–	23.3	–	58	–	35.2	–	33.3	–	64.9	–	> 57.2	49.3	–
O=Cc1cc2sc(C=O)cc2s1	–	–	–	> 100	–	> 100	–	> 100	–	> 100	–	> 100	–	> 100	–	> 100	–	> 100	> 100	–
CCCCCCCCCCCCCC(=O)OCC1OC(=O)C(O)C1O (stereo unspecified)	–	–	–	> 100	–	–	–	> 100	–	> 100	–	> 100	–	> 100	–	> 100	–	–	> 100	–
O=C(Nc1c(Cl)cccc1Cl)Oc1cccc2cccnc12	3.29	14.5	13.5	53.6	0.992	> 100	5.46	> 100	3.96	28.4	3.64	> 100	2.74	51.8	4.52	> 100	3.46	20.2	–	–
Fc1ccc(Nc2ccnc(N3CCN(c4ccnc5cc(Cl)ccc45)CC3)n2)cc1	–	–	2.43	> 100	2.3	7.93	3.67	40.3	2.76	8.37	2.53	7.38	0.845	4.54	2.18	6.62	1.74	4.54	–	–
